Measured values from paper PMC9646673, “A Novel, Orally Bioavailable, Small-Molecule Inhibitor of PCSK9 With Significant Cholesterol-Lowering Properties In Vivo” (Journal of Lipid Research, 2022).

Test system: Hmgcr, Srebf2, Pcsk9, Ldlr, Mttp transcripts in liver tissue
Test: Hepatic gene transcription (qPCR), day 35
Assay type: in vivo, mouse
Conditions: 50 mg/kg BID PO, 5 weeks
Experimental: The transcript levels of select genes in the liver tissue of mice treated with either vehicle or NYX-PCSK9i were analyzed. RNA was isolated from liver tissue using an RNA STAT-60 kit as per the manufacturer’s protocol. RNA concentrations were determined using a NanoDrop 2000 spectrophotometer (Thermo Fisher Scientific, Rockford, IL), and up to 2 μg of RNA was used as a template for cDNA synthesis using a High-capacity RNA-to-cDNA kit according to the manufacturer’s instructions. Quantitative PCR was performed with fluorescein amidite-labeled TaqMan® Assay primers and TaqMan® Fast Universal PCR Master Mix using a QuantStudio 6 Flex Real-Time PCR system (Applied Biosystems). DNA was amplified by applying a standard cycle protocol with an annealing temperature of 60°C and 40 cycles of amplification. Differential transcriptional activity was calculated using the 2^–ΔΔCt method.

SMILES: Cc1cn(-c2cc(CN3CCC[C@H](N)C3)cc(NC(=O)c3cc(-c4ccccc4)ccn3)c2)cn1 [NYX-PCSK9i]
- increase in hepatic transcription of Pcsk9: 61%
- upregulation of hepatic Srebf2 transcript: 33%
